{
  "source": "patent US7037939B2",
  "about": "“Compound and derivative of gabapentin” (Industrial Technology Research Institue, priority 2002, dated 2006)",
  "test_system": "Caco-2 cell",
  "experiment": "Caco-2 monolayer cell transmission rate (in vitro intestinal absorption model)",
  "assay_type": "in vitro ADME, human",
  "text": "The common use of the activity selection model for the in vitro intestinal absorption comprises: (1) Carcinoms (Caco-2); (2) Using Chamber; (3) Everted Gut Sac. Basically, there is no difference for those three drug-activity-selection models when they are used for evaluating the activity selection. However, in terms of the cell source from human, a cell line is predominant. Moreover, with the cellular metabolism being similar to human intestines, Caco-2 becomes an excellent tool in the study of intestine absorption. Therefore, in the comparison of the in vitro transmission rate between gabapentin and gabapentin derivatives, the Caco-2 system is still the favorable model.\nThe research for studying gabapentin and the derivatives thereof in the present invention includes: Caco-2 cell activation, Caco-2 monolayer cell cultivation, resistance value measurement, effect of time to gabapentin transmission rate, and comparison of transmission rate between gabapentin and gabapentin derivatives. In constructing the Caco-2 monolayer, the original cell line is the human colon adenocarcinoma cell (Caco-2), and its data sheet is listed as Table 2.\nThe Caco-2 cell is activated appropriately, and seeded in the transwell at 37° C. in an amount of about 1×10^5. The aliquot is cultivated in 5% CO2 at 37° C. and replaced with a fresh medium every 3 to 4 days, and then the monolayer cell is obtained by the 21 days cultivation. The integrity of the Caco-2 cell is further characterized by tissue section and resistance value measurement.\nHPLC Analysis: Intersil ODS-3V 250*4.6 mm column, Solvent: MeOH/H2O=10:90 to 70:30 with 0.1% of NH4OAc, Flow rate=1.0 ml/min, ELSD: Evaporative Light Scattering Detector. Every derivative has been repeated for 3 times in analysis, 4 hr later, the sample is analyzed for the transmission rate and then averaged to account its transmission fold.",
  "key": {"[1]": {"settings": "Caco-2 monolayer, 4 h, mean of 3 repeats, HPLC-ELSD"}, "[2]": {"settings": "ratio of Caco-2 transmission rate to GBP.HCl, 4 h"}},
  "note": "Counter-ions that a name gives are not always drawn.",
  "data": [
    {"smiles": "NCC1(CC(=O)O)CCCCC1", "note": "[Control 1, Gabapentin HCl, reference compound]", "values": [
      {"measurement": "Caco-2 Cell Mean Total Transmission rate 4 h (%)", "setting": "[1]", "value": 1.1, "unit": "%"},
      {"measurement": "gbp-prodrug/gbp Transmission Fold", "setting": "[2]", "value": 1, "unit": "Fold"}
    ]},
    {"smiles": "CC(C)C[C@@H](NC(=O)OC(C)(C)C)C(=O)NCC1(CC(=O)O)CCCCC1", "note": "[Embodiment 1, {1-[(2R-tert-Butoxycarbonylamino-4-methyl-pentanoylamino)-methyl]-cyclohexyl}-acetic acid]", "values": [
      {"measurement": "Caco-2 Cell Mean Total Transmission rate 4 h (%)", "setting": "[1]", "value": 29, "unit": "%"},
      {"measurement": "gbp-prodrug/gbp Transmission Fold", "setting": "[2]", "value": 26.4, "unit": "Fold"}
    ]},
    {"smiles": "CC(C)(C)OC(=O)NC(C(=O)NCC1(CC(=O)O)CCCCC1)c1ccccc1", "note": "(centres unmarked) [Embodiment 3, {1-[(2-tert-Butoxycarbonylamino-2-phenyl-acetylamino)-methyl]-cyclohexyl}-acetic acid]", "values": [
      {"measurement": "Caco-2 Cell Mean Total Transmission rate 4 h (%)", "setting": "[1]", "value": 3.1, "unit": "%"},
      {"measurement": "gbp-prodrug/gbp Transmission Fold", "setting": "[2]", "value": 2.8, "unit": "Fold"}
    ]},
    {"smiles": "CC(C)(C)OC(=O)NC(Cc1ccccc1)C(=O)NCC1(CC(=O)O)CCCCC1", "note": "(centres unmarked) [Embodiment 4, {1-[(2-tert-Butoxycarbonylamino-3-phenyl-propionylamino)-methyl]-cyclohexyl}-acetic acid]", "values": [
      {"measurement": "Caco-2 Cell Mean Total Transmission rate 4 h (%)", "setting": "[1]", "value": 10, "unit": "%"},
      {"measurement": "gbp-prodrug/gbp Transmission Fold", "setting": "[2]", "value": 9.1, "unit": "Fold"}
    ]},
    {"smiles": "CSCCC(NC(=O)OC(C)(C)C)C(=O)NCC1(CC(=O)O)CCCCC1", "note": "(centres unmarked) [Embodiment 5, {1-[(2-tert-Butoxycarbonylamino-4-methylsulfanyl-butyrylamino)-methyl]-cyclohexyl}-acetic acid]", "values": [
      {"measurement": "Caco-2 Cell Mean Total Transmission rate 4 h (%)", "setting": "[1]", "value": 26, "unit": "%"},
      {"measurement": "gbp-prodrug/gbp Transmission Fold", "setting": "[2]", "value": 23.6, "unit": "Fold"}
    ]},
    {"smiles": "CC(C)(C)OC(=O)NCC1(CC(=O)NCC2(CC(=O)O)CCCCC2)CCCCC1", "note": "[Embodiment 6, [1-({2-[1-(tert-Butoxycarbonylamino-methyl)-cyclohexyl]-acetylamino}-methyl)-cyclohexyl]-acetic acid]", "values": [
      {"measurement": "Caco-2 Cell Mean Total Transmission rate 4 h (%)", "setting": "[1]", "value": 27, "unit": "%"},
      {"measurement": "gbp-prodrug/gbp Transmission Fold", "setting": "[2]", "value": 24.5, "unit": "Fold"}
    ]},
    {"smiles": "CCOC(=O)CC1(CNC(=O)C2CCNCC2)CCCCC1", "note": "[Embodiment 7, (1-{[(Piperidine-4-carbonyl)-amino]-methyl}-cyclohexyl)-acetic acid ethyl ester]", "values": [
      {"measurement": "Caco-2 Cell Mean Total Transmission rate 4 h (%)", "setting": "human, Caco-2, 4 h", "value": 1, "unit": "%"},
      {"measurement": "gbp-prodrug/gbp Transmission Fold", "setting": "human, Caco-2, 4 h", "value": 0.9, "unit": "Fold"}
    ]},
    {"smiles": "CCOC(=O)CC1(CNC(=O)c2ccccc2)CCCCC1", "note": "[Embodiment 8, [1-(Benzoylamino-methyl)-cyclohexyl]-acetic acid ethyl ester]", "values": [
      {"measurement": "Caco-2 Cell Mean Total Transmission rate 4 h (%)", "setting": "human, Caco-2, 4 h", "value": 21.4, "unit": "%"},
      {"measurement": "gbp-prodrug/gbp Transmission Fold", "setting": "human, Caco-2, 4 h", "value": 19.5, "unit": "Fold"}
    ]},
    {"smiles": "CCOC(=O)CC1(CNC(=O)C2(N)CCCCC2)CCCCC1", "note": "[Embodiment 9, (1-{[(1-Amino-cyclohexanecarbonyl)-amino]-methyl}-cyclohexyl)-acetic acid ethyl ester]", "values": [
      {"measurement": "Caco-2 Cell Mean Total Transmission rate 4 h (%)", "setting": "human, Caco-2, 4 h", "value": 10.4, "unit": "%"},
      {"measurement": "gbp-prodrug/gbp Transmission Fold", "setting": "human, Caco-2, 4 h", "value": 9.5, "unit": "Fold"}
    ]},
    {"smiles": "CC(C)(C)OC(=O)NC(CO)C(=O)NCC1(CC(=O)O)CCCCC1", "note": "(centres unmarked) [Embodiment 10, {1-[(2-tert-Butoxycarbonylamino-3-hydroxy-propionylamino)-methyl]-cyclohexyl}-acetic acid]", "values": [
      {"measurement": "Caco-2 Cell Mean Total Transmission rate 4 h (%)", "setting": "human, Caco-2, 4 h", "value": 20.7, "unit": "%"},
      {"measurement": "gbp-prodrug/gbp Transmission Fold", "setting": "human, Caco-2, 4 h", "value": 18.8, "unit": "Fold"}
    ]},
    {"smiles": "CCOC(=O)CC1(CNC(=O)C(C)N)CCCCC1", "note": "(centres unmarked) [Embodiment 11, {1-[(2-Amino-propionylamino)-methyl]-cyclohexyl}-acetic acid ethyl ester]", "values": [
      {"measurement": "Caco-2 Cell Mean Total Transmission rate 4 h (%)", "setting": "human, Caco-2, 4 h", "value": 17.6, "unit": "%"},
      {"measurement": "gbp-prodrug/gbp Transmission Fold", "setting": "human, Caco-2, 4 h", "value": 16.0, "unit": "Fold"}
    ]},
    {"smiles": "CCOC(=O)C(Cc1ccccc1)NC(=O)C(C)NC(=O)CC1(CN)CCCCC1", "note": "(centres unmarked) [Embodiment 12, 2-{2-[2-(1-Aminonethyl-cyclohexyl)-acetylamino]-propionylamino}-3-phenyl-propionic acid ethyl ester]", "values": [
      {"measurement": "Caco-2 Cell Mean Total Transmission rate 4 h (%)", "setting": "[1]", "value": 2.83, "unit": "%"},
      {"measurement": "gbp-prodrug/gbp Transmission Fold", "setting": "[2]", "value": 2.6, "unit": "Fold"}
    ]},
    {"smiles": "CCOC(=O)CC1(CNC(=O)C(N)CC(C)C)CCCCC1", "note": "(centres unmarked) [Embodiment 13, {1-[(2-Amino-4-methyl-pentanoylamino)-methyl]-cyclohexyl}-acetic acid ethyl ester]", "values": [
      {"measurement": "Caco-2 Cell Mean Total Transmission rate 4 h (%)", "setting": "human, Caco-2, 4 h", "value": 12.37, "unit": "%"},
      {"measurement": "gbp-prodrug/gbp Transmission Fold", "setting": "human, Caco-2, 4 h", "value": 11.2, "unit": "Fold"}
    ]},
    {"smiles": "CCOC(=O)CC1(CNC(=O)C(N)CO)CCCCC1", "note": "(centres unmarked) [Embodiment 14, {1-[(2-Amino-3-hydroxy-propionylamino)-methyl]-cyclohexyl}-acetic acid ethyl ester]", "values": [
      {"measurement": "Caco-2 Cell Mean Total Transmission rate 4 h (%)", "setting": "human, Caco-2, 4 h", "value": 10.95, "unit": "%"},
      {"measurement": "gbp-prodrug/gbp Transmission Fold", "setting": "human, Caco-2, 4 h", "value": 10.0, "unit": "Fold"}
    ]},
    {"smiles": "CC(C)(C)OC(=O)NC(Cc1ccccc1)C(=O)NCC1(CC(=O)O)CCCCC1", "note": "(centres unmarked) [Embodiment 15, {1-[(2-tert-Butoxycarbonylamino-3-phenyl-propionylamino)-methyl]-cyclohexyl}-acetic acid]", "values": [
      {"measurement": "Caco-2 Cell Mean Total Transmission rate 4 h (%)", "setting": "[1]", "value": 0.93, "unit": "%"},
      {"measurement": "gbp-prodrug/gbp Transmission Fold", "setting": "[2]", "value": 0.8, "unit": "Fold"}
    ]},
    {"smiles": "CCOC(=O)CC1(CNC(=O)C(N)Cc2ccccc2)CCCCC1", "note": "(centres unmarked) [Embodiment 16, {1-[(2-Amino-3-phenyl-propionylamino)-methyl]-cyclohexyl}-acetic acid ethyl ester]", "values": [
      {"measurement": "Caco-2 Cell Mean Total Transmission rate 4 h (%)", "setting": "human, Caco-2, 4 h", "value": 10.30, "unit": "%"},
      {"measurement": "gbp-prodrug/gbp Transmission Fold", "setting": "human, Caco-2, 4 h", "value": 9.4, "unit": "Fold"}
    ]},
    {"smiles": "CCOC(=O)CC1(CNC(=O)C(N)C(C)CC)CCCCC1", "note": "(centres unmarked) [Embodiment 17, {1-[(2-Amino-3-methyl-pentanoylamino)-methyl]-cyclohexyl}-acetic acid ethyl ester]", "values": [
      {"measurement": "Caco-2 Cell Mean Total Transmission rate 4 h (%)", "setting": "human, Caco-2, 4 h", "value": 9.47, "unit": "%"},
      {"measurement": "gbp-prodrug/gbp Transmission Fold", "setting": "human, Caco-2, 4 h", "value": 8.6, "unit": "Fold"}
    ]},
    {"smiles": "CCOC(=O)CC1(CNC(=O)c2ccccc2CN)CCCCC1", "note": "[Embodiment 18, {1-[(2-Aminomethyl-benzoylamino)-methyl]-cyclohexyl}-acetic acid ethyl ester]", "values": [
      {"measurement": "Caco-2 Cell Mean Total Transmission rate 4 h (%)", "setting": "human, Caco-2, 4 h", "value": 2.13, "unit": "%"},
      {"measurement": "gbp-prodrug/gbp Transmission Fold", "setting": "human, Caco-2, 4 h", "value": 1.9, "unit": "Fold"}
    ]},
    {"smiles": "CCOC(=O)CC1(CNC(=O)C2CCC(CN)CC2)CCCCC1", "note": "(centres unmarked) [Embodiment 19, (1-{[(4-Aminomethyl-cyclohexanecarbonyl)-amino]-methyl}-cyclohexyl)-acetic acid ethyl ester]", "values": [
      {"measurement": "Caco-2 Cell Mean Total Transmission rate 4 h (%)", "setting": "human, Caco-2, 4 h", "value": 11.14, "unit": "%"},
      {"measurement": "gbp-prodrug/gbp Transmission Fold", "setting": "human, Caco-2, 4 h", "value": 10.1, "unit": "Fold"}
    ]},
    {"smiles": "CCOC(=O)CC1(CNC(=O)C(CC(C)C)NC(=O)CC2(CN)CCCCC2)CCCCC1", "note": "(centres unmarked) [Embodiment 20, [1-({2-[2-(1-Aminomethyl-cyclohexyl)-acetylamino]-4-methyl-pentanoylamino}-methyl)-cyclohexyl]-acetic acid ethyl ester]", "values": [
      {"measurement": "Caco-2 Cell Mean Total Transmission rate 4 h (%)", "setting": "[1]", "value": 12.22, "unit": "%"},
      {"measurement": "gbp-prodrug/gbp Transmission Fold", "setting": "[2]", "value": 11.1, "unit": "Fold"}
    ]},
    {"smiles": "CCOC(=O)CC1(CNC(=O)C(NC(=O)CC2(CN)CCCCC2)c2ccccc2)CCCCC1", "note": "(centres unmarked) [Embodiment 21, [1-({2-[2-(1-Aminomethyl-cyclohexyl)-acetylamino]-2-phenyl-acetylamino}-methyl)-cyclohexyl]-acetic acid ethyl ester]", "values": [
      {"measurement": "Caco-2 Cell Mean Total Transmission rate 4 h (%)", "setting": "[1]", "value": 8.58, "unit": "%"},
      {"measurement": "gbp-prodrug/gbp Transmission Fold", "setting": "[2]", "value": 7.8, "unit": "Fold"}
    ]},
    {"smiles": "CCOC(=O)CC1(CNC(=O)C(Cc2ccccc2)NC(=O)CC2(CN)CCCCC2)CCCCC1", "note": "(centres unmarked) [Embodiment 22, [1-({2-[2-(1-Aminomethyl-cyclohexyl)-acetylamino]-3-phenyl-propionylamino}-methyl)-cyclohexyl]-acetic acid ethyl ester]", "values": [
      {"measurement": "Caco-2 Cell Mean Total Transmission rate 4 h (%)", "setting": "[1]", "value": 9.26, "unit": "%"},
      {"measurement": "gbp-prodrug/gbp Transmission Fold", "setting": "[2]", "value": 8.4, "unit": "Fold"}
    ]}
  ]
}
